Assays:
Parameters in all cases: scale not given: the % may be the effect or the level left
[1] = target: Tyrosine-protein kinase Blk (Homo sapiens) (UniProt P51451); assay: Inhibition of human BLK assessed as enzyme activity at 1 uM using poly[Glu:Tyr] (4:1) as substrate preincubated for 20 mins followed by [gamma-33P]-ATP addition and measured after 120 mins by radiometric Hot-SpotSM Kinase assay relative to control
[2] = target: Mast/stem cell growth factor receptor Kit (Homo sapiens) (UniProt P10721); assay: Inhibition of human c-Kit assessed as enzyme activity at 1 uM using poly[Glu:Tyr] (4:1) as substrate preincubated for 20 mins followed by [gamma-33P]-ATP addition and measured after 120 mins by radiometric Hot-SpotSM Kinase assay relative to control
Chain of Mast/stem cell growth factor receptor Kit (Homo sapiens) (P10721 whole entry): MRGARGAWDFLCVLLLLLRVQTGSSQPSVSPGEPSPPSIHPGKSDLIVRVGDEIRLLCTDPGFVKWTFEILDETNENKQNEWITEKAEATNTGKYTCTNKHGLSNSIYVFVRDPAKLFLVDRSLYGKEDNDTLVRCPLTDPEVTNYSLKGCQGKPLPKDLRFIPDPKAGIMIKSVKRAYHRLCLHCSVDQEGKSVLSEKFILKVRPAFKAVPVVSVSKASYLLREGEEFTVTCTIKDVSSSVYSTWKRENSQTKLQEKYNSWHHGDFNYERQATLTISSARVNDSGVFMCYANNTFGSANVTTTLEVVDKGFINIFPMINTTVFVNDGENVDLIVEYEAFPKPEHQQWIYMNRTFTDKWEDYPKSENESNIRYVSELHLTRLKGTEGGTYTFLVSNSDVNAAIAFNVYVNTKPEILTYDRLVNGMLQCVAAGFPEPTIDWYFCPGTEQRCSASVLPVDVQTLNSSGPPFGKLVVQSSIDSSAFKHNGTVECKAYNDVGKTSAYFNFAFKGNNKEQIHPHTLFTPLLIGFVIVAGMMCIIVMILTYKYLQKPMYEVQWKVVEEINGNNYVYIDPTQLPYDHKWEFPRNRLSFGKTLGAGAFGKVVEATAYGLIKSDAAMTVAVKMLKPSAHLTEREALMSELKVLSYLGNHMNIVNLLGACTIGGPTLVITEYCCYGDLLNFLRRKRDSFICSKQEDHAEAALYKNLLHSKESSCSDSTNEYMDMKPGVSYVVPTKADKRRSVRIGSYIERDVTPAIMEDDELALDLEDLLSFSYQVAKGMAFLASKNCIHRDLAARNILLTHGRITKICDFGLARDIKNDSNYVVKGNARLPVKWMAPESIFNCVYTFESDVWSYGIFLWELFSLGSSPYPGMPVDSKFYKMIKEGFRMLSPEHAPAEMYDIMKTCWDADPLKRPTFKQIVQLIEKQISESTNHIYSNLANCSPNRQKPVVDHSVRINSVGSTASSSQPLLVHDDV

[3] = target: T1, Megakaryocyte-associated tyrosine-protein kinase (Homo sapiens) (UniProt P42679); assay: Inhibition of human CTK/MATK assessed as enzyme activity at 1 uM using poly[Glu:Tyr] (4:1) as substrate preincubated for 20 mins followed by [gamma-33P]-ATP addition and measured after 120 mins by radiometric Hot-SpotSM Kinase assay relative to control
T1 sequence (whole entry): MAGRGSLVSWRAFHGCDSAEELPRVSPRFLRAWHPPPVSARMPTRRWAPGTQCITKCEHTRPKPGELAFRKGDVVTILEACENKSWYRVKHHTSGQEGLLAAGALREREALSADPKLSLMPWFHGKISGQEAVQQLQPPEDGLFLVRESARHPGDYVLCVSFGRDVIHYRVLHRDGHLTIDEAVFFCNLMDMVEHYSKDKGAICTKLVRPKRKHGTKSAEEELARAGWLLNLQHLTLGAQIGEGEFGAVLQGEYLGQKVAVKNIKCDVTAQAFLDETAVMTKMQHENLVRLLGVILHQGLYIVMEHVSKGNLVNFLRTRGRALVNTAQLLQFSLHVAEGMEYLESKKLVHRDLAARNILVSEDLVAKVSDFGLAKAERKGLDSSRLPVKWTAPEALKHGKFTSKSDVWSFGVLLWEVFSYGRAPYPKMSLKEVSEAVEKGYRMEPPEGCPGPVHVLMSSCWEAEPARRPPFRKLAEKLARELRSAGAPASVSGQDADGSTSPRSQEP

[4] = target: Receptor tyrosine-protein kinase erbB-2 (Homo sapiens) (UniProt P04626); assay: Inhibition of human ERBB2 assessed as enzyme activity at 1 uM using poly[Glu:Tyr] (4:1) as substrate preincubated for 20 mins followed by [gamma-33P]-ATP addition and measured after 120 mins by radiometric Hot-SpotSM Kinase assay relative to control
Chain of Receptor tyrosine-protein kinase erbB-2 (Homo sapiens) (P04626 whole entry): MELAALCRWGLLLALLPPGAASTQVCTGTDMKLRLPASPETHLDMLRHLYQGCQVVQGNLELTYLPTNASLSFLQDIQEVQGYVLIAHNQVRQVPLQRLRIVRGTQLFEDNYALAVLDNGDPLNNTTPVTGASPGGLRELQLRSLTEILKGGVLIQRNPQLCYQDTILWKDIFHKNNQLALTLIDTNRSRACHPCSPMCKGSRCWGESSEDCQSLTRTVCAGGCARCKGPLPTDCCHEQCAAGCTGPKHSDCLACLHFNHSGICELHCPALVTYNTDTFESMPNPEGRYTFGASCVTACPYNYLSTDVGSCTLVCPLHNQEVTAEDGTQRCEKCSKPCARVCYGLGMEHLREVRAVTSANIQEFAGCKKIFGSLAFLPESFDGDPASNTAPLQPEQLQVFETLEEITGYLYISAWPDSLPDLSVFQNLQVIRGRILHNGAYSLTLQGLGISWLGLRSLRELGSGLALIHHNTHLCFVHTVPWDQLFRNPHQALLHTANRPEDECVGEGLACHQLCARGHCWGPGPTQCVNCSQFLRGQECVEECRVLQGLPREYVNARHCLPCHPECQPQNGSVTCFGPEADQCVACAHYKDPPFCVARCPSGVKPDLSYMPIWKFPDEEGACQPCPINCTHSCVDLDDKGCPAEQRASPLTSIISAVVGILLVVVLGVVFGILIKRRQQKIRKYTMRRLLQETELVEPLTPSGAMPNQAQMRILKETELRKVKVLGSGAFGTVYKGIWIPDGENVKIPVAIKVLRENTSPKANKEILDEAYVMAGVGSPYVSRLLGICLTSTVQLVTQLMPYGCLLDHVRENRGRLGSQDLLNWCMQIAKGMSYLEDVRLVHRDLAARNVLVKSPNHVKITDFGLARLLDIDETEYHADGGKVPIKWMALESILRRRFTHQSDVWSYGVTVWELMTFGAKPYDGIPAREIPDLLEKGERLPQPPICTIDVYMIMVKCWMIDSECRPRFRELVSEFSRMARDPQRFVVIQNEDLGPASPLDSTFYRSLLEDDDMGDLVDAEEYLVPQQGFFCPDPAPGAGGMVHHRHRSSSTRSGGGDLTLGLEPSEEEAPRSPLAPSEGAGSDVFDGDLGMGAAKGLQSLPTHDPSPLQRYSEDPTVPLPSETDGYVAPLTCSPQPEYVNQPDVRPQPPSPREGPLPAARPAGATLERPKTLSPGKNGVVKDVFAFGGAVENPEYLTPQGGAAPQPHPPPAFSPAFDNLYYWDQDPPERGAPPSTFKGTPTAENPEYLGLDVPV

[5] = target: Fibroblast growth factor receptor 2 (Homo sapiens) (UniProt P21802); assay: Inhibition of human FGFR2 assessed as enzyme activity at 1 uM using poly[Glu:Tyr] (4:1) as substrate preincubated for 20 mins followed by [gamma-33P]-ATP addition and measured after 120 mins by radiometric Hot-SpotSM Kinase assay relative to control
[6] = target: T2, Serine/threonine-protein kinase haspin (Homo sapiens) (UniProt Q8TF76); assay: Inhibition of human Haspin assessed as enzyme activity at 1 uM using histone H3 as substrate preincubated for 20 mins followed by [gamma-33P]-ATP addition and measured after 120 mins by radiometric Hot-SpotSM Kinase assay relative to control
T2 sequence (whole entry): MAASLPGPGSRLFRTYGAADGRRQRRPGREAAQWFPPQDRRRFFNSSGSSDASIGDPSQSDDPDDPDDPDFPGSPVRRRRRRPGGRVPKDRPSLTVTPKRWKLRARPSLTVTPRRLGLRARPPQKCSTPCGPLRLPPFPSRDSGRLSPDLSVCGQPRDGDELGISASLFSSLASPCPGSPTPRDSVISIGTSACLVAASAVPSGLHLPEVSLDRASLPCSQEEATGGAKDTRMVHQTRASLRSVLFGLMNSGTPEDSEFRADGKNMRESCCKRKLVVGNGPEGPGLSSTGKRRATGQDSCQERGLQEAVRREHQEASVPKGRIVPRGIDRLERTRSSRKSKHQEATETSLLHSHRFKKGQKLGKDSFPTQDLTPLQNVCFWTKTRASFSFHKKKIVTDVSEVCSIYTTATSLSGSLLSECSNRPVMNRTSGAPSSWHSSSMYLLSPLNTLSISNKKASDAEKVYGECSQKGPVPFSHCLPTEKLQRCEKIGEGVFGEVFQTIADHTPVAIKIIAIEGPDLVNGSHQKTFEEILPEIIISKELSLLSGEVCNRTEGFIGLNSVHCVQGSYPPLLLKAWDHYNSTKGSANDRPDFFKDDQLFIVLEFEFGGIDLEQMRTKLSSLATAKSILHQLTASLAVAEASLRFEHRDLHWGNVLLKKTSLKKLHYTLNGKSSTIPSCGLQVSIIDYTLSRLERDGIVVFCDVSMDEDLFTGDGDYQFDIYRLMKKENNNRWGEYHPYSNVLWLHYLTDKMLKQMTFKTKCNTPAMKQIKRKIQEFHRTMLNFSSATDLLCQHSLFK

[7] = target: LIM domain kinase 1 (Homo sapiens) (UniProt P53667); assay: Inhibition of human LIMK1 assessed as enzyme activity at 1 uM using cofilin 1 as substrate preincubated for 20 mins followed by [gamma-33P]-ATP addition and measured after 120 mins by radiometric Hot-SpotSM Kinase assay relative to control
[8] = target: Platelet-derived growth factor receptor alpha (Homo sapiens) (UniProt P16234); assay: Inhibition of human PDGFRa assessed as enzyme activity at 1 uM using poly[Glu:Tyr] (4:1) as substrate preincubated for 20 mins followed by [gamma-33P]-ATP addition and measured after 120 mins by radiometric Hot-SpotSM Kinase assay relative to control
[9] = target: Proto-oncogene tyrosine-protein kinase ROS (Homo sapiens) (UniProt P08922); assay: Inhibition of human ROS assessed as enzyme activity at 1 uM using KKKSPGEYVNIEFG as substrate preincubated for 20 mins followed by [gamma-33P]-ATP addition and measured after 120 mins by radiometric Hot-SpotSM Kinase assay relative to control
Chain of Proto-oncogene tyrosine-protein kinase ROS (Homo sapiens) (P08922 whole entry): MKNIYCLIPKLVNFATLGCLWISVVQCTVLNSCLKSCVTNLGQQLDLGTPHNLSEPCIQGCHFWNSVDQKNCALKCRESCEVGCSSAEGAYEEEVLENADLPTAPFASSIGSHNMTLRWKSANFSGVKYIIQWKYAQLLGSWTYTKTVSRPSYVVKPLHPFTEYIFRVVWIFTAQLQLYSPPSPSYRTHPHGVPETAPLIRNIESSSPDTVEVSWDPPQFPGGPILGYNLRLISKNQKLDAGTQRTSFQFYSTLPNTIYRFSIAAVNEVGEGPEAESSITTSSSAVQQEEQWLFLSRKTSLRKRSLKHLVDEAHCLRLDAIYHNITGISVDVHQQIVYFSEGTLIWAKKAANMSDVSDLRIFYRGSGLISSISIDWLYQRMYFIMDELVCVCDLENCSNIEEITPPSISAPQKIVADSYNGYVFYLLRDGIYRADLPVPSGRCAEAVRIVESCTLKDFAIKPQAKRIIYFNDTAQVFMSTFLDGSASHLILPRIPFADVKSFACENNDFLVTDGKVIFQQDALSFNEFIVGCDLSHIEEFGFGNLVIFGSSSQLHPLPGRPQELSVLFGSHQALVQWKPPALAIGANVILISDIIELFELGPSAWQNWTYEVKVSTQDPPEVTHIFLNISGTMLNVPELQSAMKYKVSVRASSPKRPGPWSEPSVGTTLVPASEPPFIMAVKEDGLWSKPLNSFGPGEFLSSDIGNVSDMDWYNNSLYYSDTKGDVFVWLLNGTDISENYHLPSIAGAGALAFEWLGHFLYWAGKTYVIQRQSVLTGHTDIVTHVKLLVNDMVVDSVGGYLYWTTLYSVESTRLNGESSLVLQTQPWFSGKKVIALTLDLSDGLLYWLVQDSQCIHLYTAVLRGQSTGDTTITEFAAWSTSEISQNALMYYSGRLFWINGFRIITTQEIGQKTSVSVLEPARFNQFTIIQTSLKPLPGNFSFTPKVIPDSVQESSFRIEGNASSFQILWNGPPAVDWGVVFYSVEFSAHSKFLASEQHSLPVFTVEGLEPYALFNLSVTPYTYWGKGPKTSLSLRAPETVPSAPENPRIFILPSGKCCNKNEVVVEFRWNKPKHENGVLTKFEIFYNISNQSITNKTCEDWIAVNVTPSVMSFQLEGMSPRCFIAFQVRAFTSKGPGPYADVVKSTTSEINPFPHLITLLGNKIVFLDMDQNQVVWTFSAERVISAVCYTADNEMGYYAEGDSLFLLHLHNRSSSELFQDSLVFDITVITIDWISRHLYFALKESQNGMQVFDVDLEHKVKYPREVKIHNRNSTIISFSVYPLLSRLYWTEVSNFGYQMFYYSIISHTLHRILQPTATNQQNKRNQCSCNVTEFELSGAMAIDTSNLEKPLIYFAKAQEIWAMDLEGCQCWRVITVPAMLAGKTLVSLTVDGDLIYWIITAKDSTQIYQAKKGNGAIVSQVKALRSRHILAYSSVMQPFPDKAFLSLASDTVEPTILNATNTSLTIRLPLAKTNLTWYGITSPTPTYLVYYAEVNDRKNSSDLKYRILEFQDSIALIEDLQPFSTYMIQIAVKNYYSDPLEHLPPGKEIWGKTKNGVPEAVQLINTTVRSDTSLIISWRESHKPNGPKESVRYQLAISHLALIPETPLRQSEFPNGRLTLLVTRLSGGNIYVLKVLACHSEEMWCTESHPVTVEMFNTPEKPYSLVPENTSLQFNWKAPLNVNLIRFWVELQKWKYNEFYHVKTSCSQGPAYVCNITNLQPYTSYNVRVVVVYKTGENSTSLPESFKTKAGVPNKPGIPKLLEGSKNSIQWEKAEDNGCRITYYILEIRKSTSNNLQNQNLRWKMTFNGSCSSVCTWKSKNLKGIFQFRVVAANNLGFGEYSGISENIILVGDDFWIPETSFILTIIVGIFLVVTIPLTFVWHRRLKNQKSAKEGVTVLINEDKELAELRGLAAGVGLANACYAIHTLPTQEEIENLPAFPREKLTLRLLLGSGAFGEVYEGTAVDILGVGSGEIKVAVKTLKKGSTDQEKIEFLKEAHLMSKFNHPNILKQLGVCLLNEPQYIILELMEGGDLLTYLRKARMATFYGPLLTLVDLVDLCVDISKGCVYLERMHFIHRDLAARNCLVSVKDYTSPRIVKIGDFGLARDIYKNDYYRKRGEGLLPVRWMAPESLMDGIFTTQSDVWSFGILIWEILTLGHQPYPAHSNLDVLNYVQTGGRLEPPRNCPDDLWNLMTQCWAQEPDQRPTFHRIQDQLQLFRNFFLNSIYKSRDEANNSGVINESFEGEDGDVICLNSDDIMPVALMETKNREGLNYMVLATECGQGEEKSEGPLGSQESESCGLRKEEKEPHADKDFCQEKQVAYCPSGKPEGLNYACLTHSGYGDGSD

[10] = target: Serine/threonine-protein kinase 16 (Homo sapiens) (UniProt O75716); assay: Inhibition of human STK16 assessed as enzyme activity at 1 uM using myelin basic protein as substrate preincubated for 20 mins followed by [gamma-33P]-ATP addition and measured after 120 mins by radiometric Hot-SpotSM Kinase assay relative to control
Chain of Serine/threonine-protein kinase 16 (Homo sapiens) (O75716 whole entry): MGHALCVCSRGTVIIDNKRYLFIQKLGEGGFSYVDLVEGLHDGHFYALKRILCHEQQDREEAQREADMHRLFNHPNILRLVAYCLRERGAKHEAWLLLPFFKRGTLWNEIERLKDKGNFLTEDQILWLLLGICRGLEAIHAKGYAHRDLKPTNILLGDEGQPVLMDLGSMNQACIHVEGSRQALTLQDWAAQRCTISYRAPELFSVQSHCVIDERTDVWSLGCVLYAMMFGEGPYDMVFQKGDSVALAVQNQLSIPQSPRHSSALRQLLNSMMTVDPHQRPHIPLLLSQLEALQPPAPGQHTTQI

Work on C[C@H](Nc1ncnc2nc[nH]c12)c1cc2cccc(Cl)c2c(=O)n1-c1ccccc1 yielded an Activity [1] of 96.9%, an Activity [2] of 103% and an Activity [3] of 105%. The Activity [4] was 104%, the Activity [5] was 93.9% and the Activity [6] was 96.5%. It also gave an Activity [7] of 90%, an Activity [8] of 90.1% and an Activity [9] of 86.7%. It also gave an Activity [10] of 106%.
With CC[C@H](Nc1ncnc2[nH]cnc12)c1nc2cccc(F)c2c(=O)n1-c1ccccc1 the Activity [1] was 97.6%, the Activity [2] was 99.4% and the Activity [3] was 105%. The Activity [4] was 109%, the Activity [5] was 95.8% and the Activity [6] was 95.5%. The Activity [7] was 87.3%, the Activity [8] was 93.8% and the Activity [9] was 98%. It also gave an Activity [10] of 105%.
With CC(C)Oc1ccc(-c2nn([C@@H](C)c3oc4ccc(F)cc4c(=O)c3-c3cccc(F)c3)c3ncnc(N)c23)cc1F [UMBRALISIB] the Activity [1] was 99.7%, the Activity [2] was 97.4% and the Activity [3] was 106%. For the same molecule, the Activity [4] was 117%, the Activity [5] was 97.8% and the Activity [6] was 93.7%. For the same molecule, the Activity [7] was 96.7%, the Activity [8] was 100% and the Activity [9] was 94.5%. The Activity [10] was 108%.

Reference: ChEMBL document CHEMBL5715954, “Silencing c-Myc translation as a therapeutic strategy through targeting PI3Kδ and CK1ε in hematological malignancies” (Blood, 2017)
